In PubChem BioAssay AID1259407 (Chemical Carcinogenesis Research Information System (CCRIS), 2018):
Activity calls are given as the source filed them. The rule behind the calls is not given here.

System: CCRIS mutagenicity, Ames/micronucleus/aberration tests
Assay: CCRIS mutagenicity studies
[1] = Test System: AMES SALMONELLA TYPHIMURIUM, Strain/Indicator: TA98, Metabolic Activation: NONE, Method: PREINCUBATION
[2] = Test System: AMES SALMONELLA TYPHIMURIUM, Strain/Indicator: TA98, Metabolic Activation: RAT, LIVER, S-9, AROCLOR 1254 (30%), Method: PREINCUBATION
[3] = Test System: AMES SALMONELLA TYPHIMURIUM, Strain/Indicator: TA100, Metabolic Activation: NONE, Method: PREINCUBATION
[4] = Test System: AMES SALMONELLA TYPHIMURIUM, Strain/Indicator: TA98, Metabolic Activation: NONE, Method: STANDARD PLATE
[5] = Test System: AMES SALMONELLA TYPHIMURIUM, Strain/Indicator: TA100, Metabolic Activation: NONE, Method: STANDARD PLATE

In the case of O=C(Cl)C(Cl)Cl, the mutagenic call (Test System: AMES SALMONELLA TYPHIMURIUM, Strain/Indicator: TA98, Metabolic Activation: HAMSTER, LIVER, S-9, AROCLOR 1254 (30%), Method: PREINCUBATION) is reported as “inactive; negative”, the mutagenic call [1] is reported as “inactive; negative” and the mutagenic call [2] is reported as “inactive; negative”. For the same compound, the mutagenic call (Test System: AMES SALMONELLA TYPHIMURIUM, Strain/Indicator: TA100, Metabolic Activation: HAMSTER, LIVER, S-9, AROCLOR 1254 (30%), Method: PREINCUBATION) was “inactive; negative”, the mutagenic call (Test System: AMES SALMONELLA TYPHIMURIUM, Strain/Indicator: TA100, Metabolic Activation: NONE, Method: BAG VAPORIZATION) was “active; positive” and the mutagenic call [3] was “active; positive”. The mutagenic call (Test System: AMES SALMONELLA TYPHIMURIUM, Strain/Indicator: TA100, Metabolic Activation: RAT, LIVER, S-9, AROCLOR 1254 (30%), Method: PREINCUBATION) was “inactive; negative” and the mutagenic call (Test System: AMES SALMONELLA TYPHIMURIUM, Strain/Indicator: TA100, Metabolic Activation: RAT, LIVER, S-9, AROCLOR 1254, Method: BAG VAPORIZATION) was “inactive; negative”.
Cc1c2c(c(C)c3ccccc13)[C@H]1O[C@H]1c1ccccc1-2 was tested, and the mutagenic call [1] was “active; positive”.
With O=CC(Cl)=C(Cl)Cl the mutagenic call [4] was “active; positive” and the mutagenic call [5] was “active; positive”.
With O=C(O)c1ccccc1 the mutagenic call (Test System: AMES SALMONELLA TYPHIMURIUM, Strain/Indicator: TA97, Metabolic Activation: HAMSTER, LIVER, S-9, AROCLOR 1254 (10 OR 30%), Method: PREINCUBATION) was “inactive; negative”, the mutagenic call (Test System: AMES SALMONELLA TYPHIMURIUM, Strain/Indicator: TA97, Metabolic Activation: NONE, Method: PREINCUBATION) was “inactive; negative” and the mutagenic call (Test System: AMES SALMONELLA TYPHIMURIUM, Strain/Indicator: TA97, Metabolic Activation: RAT, LIVER, S-9, AROCLOR 1254, Method: PREINCUBATION) was “inactive; negative”. For the same compound, the mutagenic call (Test System: AMES SALMONELLA TYPHIMURIUM, Strain/Indicator: TA97, Metabolic Activation: RAT,LIVER, S-9, AROCLOR 1254 (10 OR 30%), Method: PREINCUBATION) was “inactive; negative”, the mutagenic call (Test System: AMES SALMONELLA TYPHIMURIUM, Strain/Indicator: TA97A, Metabolic Activation: NONE, Method: PREINCUBATION) was “inactive; negative” and the mutagenic call (Test System: AMES SALMONELLA TYPHIMURIUM, Strain/Indicator: TA97A, Metabolic Activation: RAT, LIVER, S-9, AROCLOR 1254, Method: PREINCUBATION) was “inactive; negative”. The mutagenic call (Test System: AMES SALMONELLA TYPHIMURIUM, Strain/Indicator: TA98, Metabolic Activation: GUINEA PIG, LIVER, S-9, PCB, Method: PREINCUBATION) was “inactive; negative”, the mutagenic call (Test System: AMES SALMONELLA TYPHIMURIUM, Strain/Indicator: TA98, Metabolic Activation: HAMSTER, LIVER, S-9, AROCLOR 1254 (10 OR 30%), Method: PREINCUBATION) was “inactive; negative” and the mutagenic call (Test System: AMES SALMONELLA TYPHIMURIUM, Strain/Indicator: TA98, Metabolic Activation: HAMSTER, LIVER, S-9, PCB, Method: PREINCUBATION) was “inactive; negative”. For the same compound, the mutagenic call (Test System: AMES SALMONELLA TYPHIMURIUM, Strain/Indicator: TA98, Metabolic Activation: MOUSE, LIVER, S-9, PCB, Method: PREINCUBATION) was “inactive; negative”, the mutagenic call [1] was “inactive; negative” and the mutagenic call [4] was “inactive; negative”. For the same compound, the mutagenic call (Test System: AMES SALMONELLA TYPHIMURIUM, Strain/Indicator: TA98, Metabolic Activation: RAT, LIVER, S-9, AROCLOR 1254 (10%), Method: PREINCUBATION) was “inactive; negative”, the mutagenic call [2] was “inactive; negative” and the mutagenic call (Test System: AMES SALMONELLA TYPHIMURIUM, Strain/Indicator: TA98, Metabolic Activation: RAT, LIVER, S-9, AROCLOR 1254, Method: STANDARD PLATE) was “inactive; negative”. For the same compound, the mutagenic call (Test System: AMES SALMONELLA TYPHIMURIUM, Strain/Indicator: TA98, Metabolic Activation: RAT, LIVER, S-9, PCB, Method: PREINCUBATION) was “inactive; negative”, the mutagenic call (Test System: AMES SALMONELLA TYPHIMURIUM, Strain/Indicator: TA100, Metabolic Activation: GUINEA PIG, LIVER, S-9, PCB, Method: PREINCUBATION) was “inactive; negative” and the mutagenic call (Test System: AMES SALMONELLA TYPHIMURIUM, Strain/Indicator: TA100, Metabolic Activation: HAMSTER, LIVER, S-9, AROCLOR 1254 (10 OR 30%), Method: PREINCUBATION) was “inactive; negative”. For the same compound, the mutagenic call (Test System: AMES SALMONELLA TYPHIMURIUM, Strain/Indicator: TA100, Metabolic Activation: HAMSTER, LIVER, S-9, PCB, Method: PREINCUBATION) was “inactive; negative”, the mutagenic call (Test System: AMES SALMONELLA TYPHIMURIUM, Strain/Indicator: TA100, Metabolic Activation: MOUSE, LIVER, S-9, PCB, Method: PREINCUBATION) was “inactive; negative” and the mutagenic call [3] was “inactive; negative”. The mutagenic call [5] was “inactive; negative”, the mutagenic call (Test System: AMES SALMONELLA TYPHIMURIUM, Strain/Indicator: TA100, Metabolic Activation: RAT, LIVER, S-9, AROCLOR 1254 (10 OR 30%), Method: PREINCUBATION) was “inactive; negative” and the mutagenic call (Test System: AMES SALMONELLA TYPHIMURIUM, Strain/Indicator: TA100, Metabolic Activation: RAT, LIVER, S-9, AROCLOR 1254, Method: STANDARD PLATE) was “inactive; negative”. The mutagenic call (Test System: AMES SALMONELLA TYPHIMURIUM, Strain/Indicator: TA100, Metabolic Activation: RAT, LIVER, S-9, PCB, Method: PREINCUBATION) was “inactive; negative”, the mutagenic call (Test System: AMES SALMONELLA TYPHIMURIUM, Strain/Indicator: TA102, Metabolic Activation: NONE, Method: PREINCUBATION) was “inactive; negative” and the mutagenic call (Test System: AMES SALMONELLA TYPHIMURIUM, Strain/Indicator: TA102, Metabolic Activation: RAT, LIVER, S-9, AROCLOR 1254, Method: PREINCUBATION) was “inactive; negative”. For the same compound, the mutagenic call (Test System: AMES SALMONELLA TYPHIMURIUM, Strain/Indicator: TA1535, Metabolic Activation: HAMSTER, LIVER, S-9, AROCLOR 1254 (10 OR 30%), Method: PREINCUBATION) was “inactive; negative”, the mutagenic call (Test System: AMES SALMONELLA TYPHIMURIUM, Strain/Indicator: TA1535, Metabolic Activation: NONE, Method: PREINCUBATION) was “inactive; negative” and the mutagenic call (Test System: AMES SALMONELLA TYPHIMURIUM, Strain/Indicator: TA1535, Metabolic Activation: NONE, Method: STANDARD PLATE) was “inactive; negative”. The mutagenic call (Test System: AMES SALMONELLA TYPHIMURIUM, Strain/Indicator: TA1535, Metabolic Activation: RAT, LIVER, S-9, AROCLOR 1254 (10%), Method: PREINCUBATION) was “inactive; negative”, the mutagenic call (Test System: AMES SALMONELLA TYPHIMURIUM, Strain/Indicator: TA1535, Metabolic Activation: RAT, LIVER, S-9, AROCLOR 1254 (30%), Method: PREINCUBATION) was “inactive; negative” and the mutagenic call (Test System: AMES SALMONELLA TYPHIMURIUM, Strain/Indicator: TA1535, Metabolic Activation: RAT, LIVER, S-9, AROCLOR 1254, Method: STANDARD PLATE) was “inactive; negative”. For the same compound, the mutagenic call (Test System: AMES SALMONELLA TYPHIMURIUM, Strain/Indicator: TA1537, Metabolic Activation: HAMSTER, LIVER, S-9, AROCLOR 1254 (10 OR 30%), Method: PREINCUBATION) was “inactive; negative”, the mutagenic call (Test System: AMES SALMONELLA TYPHIMURIUM, Strain/Indicator: TA1537, Metabolic Activation: NONE, Method: PREINCUBATION) was “inactive; negative” and the mutagenic call (Test System: AMES SALMONELLA TYPHIMURIUM, Strain/Indicator: TA1537, Metabolic Activation: NONE, Method: STANDARD PLATE) was “inactive; negative”. The mutagenic call (Test System: AMES SALMONELLA TYPHIMURIUM, Strain/Indicator: TA1537, Metabolic Activation: RAT, LIVER, S-9, AROCLOR 1254 (10%), Method: PREINCUBATION) was “inactive; negative”, the mutagenic call (Test System: AMES SALMONELLA TYPHIMURIUM, Strain/Indicator: TA1537, Metabolic Activation: RAT, LIVER, S-9, AROCLOR 1254 (30%), Method: PREINCUBATION) was “inactive; negative” and the mutagenic call (Test System: AMES SALMONELLA TYPHIMURIUM, Strain/Indicator: TA1537, Metabolic Activation: RAT, LIVER, S-9, AROCLOR 1254, Method: STANDARD PLATE) was “inactive; negative”. The mutagenic call (Test System: AMES SALMONELLA TYPHIMURIUM, Strain/Indicator: TA1538, Metabolic Activation: NONE, Method: STANDARD PLATE) was “inactive; negative”, the mutagenic call (Test System: AMES SALMONELLA TYPHIMURIUM, Strain/Indicator: TA1538, Metabolic Activation: RAT, LIVER, S-9, AROCLOR 1254, Method: STANDARD PLATE) was “inactive; negative” and the mutagenic call (Test System: Ames Salmonella typhimurium, Strain/Indicator: TA98, Metabolic Activation: None, Method: Direct plate incorporation) was “inactive; negative”. The mutagenic call (Test System: Ames Salmonella typhimurium, Strain/Indicator: TA98, Metabolic Activation: Rat, liver, S-9, Aroclor 1254, Method: Direct plate incorporation) was “inactive; negative”, the mutagenic call (Test System: Ames Salmonella typhimurium, Strain/Indicator: TA100, Metabolic Activation: None, Method: Direct plate incorporation) was “inactive; negative” and the mutagenic call (Test System: Ames Salmonella typhimurium, Strain/Indicator: TA100, Metabolic Activation: Rat, liver, S-9, Aroclor 1254, Method: Direct plate incorporation) was “inactive; negative”. The mutagenic call (Test System: E. COLI, Strain/Indicator: WP2, Metabolic Activation: NONE, Method: STANDARD PLATE) was “inactive; negative” and the mutagenic call (Test System: E. COLI, Strain/Indicator: WP2, Metabolic Activation: RAT, LIVER, S-9, AROCLOR 1254, Method: STANDARD PLATE) was “inactive; negative”.
